Assay results as given in ChEMBL document CHEMBL4406832, “Discovery of novel series of 2-substituted benzo[d]oxazol-5-amine derivatives as multi-target directed ligands for the treatment of Alzheimer's disease” (Eur J Med Chem, 2019).
Activity calls are given as the source filed them. The calls are words filed in the database; no cut-off is given here.

How the values were obtained:
[1] = molecular target: Acetylcholinesterase (Electrophorus electricus) (UniProt O42275); assay: Non-competitive inhibition of electric eel AChE assessed as decrease in Vmax at 25 to 75 nM using varying levels of acetylthiocholine iodide as substrate measured every 2 mins for 10 mins by reciprocal Lineweaver-Burk plot analysis
Acetylcholinesterase [2] = molecular target: T1, Acetylcholinesterase (Electrophorus electricus, UniProt O42275); assay: Inhibition of electric eel AChE using acetylthiocholine iodide as substrate preincubated with enzyme for 30 mins followed by substrate addition and measured for 1 min by DTNB reagent-based spectrophotometric analysis
Cholinesterase [3] = molecular target: T2, Cholinesterase (Equus caballus, UniProt P81908); assay: Inhibition of equine serum BuChE using butyrylthiocholine iodide as substrate preincubated for 30 mins followed by substrate addition and measured for 1 min by DTNB reagent-based spectrophotometric analysis
[4] = Selectivity index, ratio of IC50 for equine serum BuChE to IC50 for electric eel AChE
[5] = Permeability of the compound in pH 7.4 PBS buffer incubated for 18 hrs by PAMPA-BBB assay
[6] = molecular target: Acetylcholinesterase (Electrophorus electricus) (UniProt O42275); assay: Non-competitive inhibition of electric eel AChE assessed as decrease in Km at 25 to 75 nM using varying levels of acetylthiocholine iodide as substrate measured every 2 mins for 10 mins by reciprocal Lineweaver-Burk plot analysis
[7] = molecular target: Cholinesterase (Equus caballus) (UniProt P81908); assay: Non-competitive inhibition of equine serum BuChE assessed as decrease in Vmax at 0.5 to 1.5 uM using varying levels of butyrylthiocholine iodide as substrate measured every 2 mins for 10 mins by reciprocal Lineweaver-Burk plot analysis
[8] = molecular target: Cholinesterase (Equus caballus) (UniProt P81908); assay: Non-competitive inhibition of equine serum BuChE assessed as decrease in Km at 0.5 to 1.5 uM using varying levels of butyrylthiocholine iodide as substrate measured every 2 mins for 10 mins by reciprocal Lineweaver-Burk plot analysis
Acetylcholinesterase [9] = molecular target: T1, Acetylcholinesterase; assay: Non-competitive inhibition of electric eel AChE using varying levels of acetylthiocholine iodide as substrate measured at 2 mins interval for 10 mins by Dixon plot analysis
Cholinesterase [10] = molecular target: T2, Cholinesterase; assay: Non-competitive inhibition of equine serum BuChE using varying levels of butyrylthiocholine iodide as substrate measured at 2 mins interval for 10 mins by Dixon plot analysis
[11] = molecular target: T3, Amyloid-beta precursor protein (Homo sapiens, UniProt P05067); assay: Inhibition of human amyloid beta (1 to 42) self-induced aggregation at 5 to 20 uM after 48 hrs by Thioflavin T based fluorometric assay
[12] = molecular target: Acetylcholinesterase (Electrophorus electricus) (UniProt O42275); assay: Inhibition of electric eel AChE-induced amyloid beta (1 to 42) aggregation at 5 to 20 uM after 48 hrs by thioflavin T-based fluorometric assay
SH-SY5Y [13] = assay: Neuroprotective activity against amyloid beta (1 to 42)-induced cytotoxicity in human SH-SY5Y cells assessed as increase in cell viability at 10 to 20 uM measured after 72 hrs by MTT assay; assay type: functional, cell-based
SH-SY5Y [14] = assay: Neuroprotective activity against amyloid beta (1 to 42)-induced cytotoxicity in human SH-SY5Y cells assessed as increase in cell viability at 40 to 80 uM measured after 72 hrs by MTT assay; assay type: functional, cell-based
[15] = Acute toxicity in Wistar rat assessed as animal death measured for 72 hrs by OCED guideline method; conditions: in vivo
[16] = Toxicity in Wistar rat assessed as change in body weight at 300 mg/kg measured for 72 hrs; assay type: organism-based; conditions: in vivo
Rattus norvegicus [17] = species on record: Rattus norvegicus; assay: Ex vivo inhibition of AChE in brain of scopolamine-induced Wistar rat model of amnesia pretreated for 7 days followed by scopolamine challenge and measured after 30 mins using acetylthiocholine iodide as substrate by Ellman's method; assay type: functional, organism-based
Rattus norvegicus [18] = assay: (§1) Improvement in learning and spatial memory in icv infused amyloid beta (1 to 42)-induced Wistar rat model of Alzheimer's disease assessed as increase in number of platform crossing at 10 mg/kg, po administered daily for 7 days starting from 7 days post surgery and measured after 6 days by Morris water maze test; assay type: functional, organism-based
Rattus norvegicus [19] = assay: as §1, with “reduction” for “increase”, “escape latency” for “number of platform crossing”, “daily for 5” for “after 6”; assay type: functional, organism-based
Rattus norvegicus [20] = assay: as §1, with “time spent in” for “number of”, “zone” for “crossing”; assay type: functional, organism-based
Rattus norvegicus [21] = assay: as §1, with “reduction” for “increase”, “degeneration” for “number”, “neuron in hippocampal region” for “platform crossing”, “H and E staining-based microscopic analysis” for “Morris water maze test”; assay type: functional, organism-based
Rattus norvegicus [22] = assay: as §1, with “reduction” for “increase”, “disordered neuron in hippocampal region” for “number of platform crossing”, “H and E staining-based microscopic analysis” for “Morris water maze test”; assay type: functional, organism-based
Rattus norvegicus [23] = species on record: Rattus norvegicus; assay: Cognitive enhancing effect in scopolamine-induced Wistar rat model of amnesia assessed as increase in spontaneous alteration pretreated for 7 days followed by scopolamine challenge and measured after 30 mins by Y-maze test; assay type: functional, organism-based
Rattus norvegicus [24] = assay: Cognitive enhancing effect in scopolamine-induced Wistar rat model of amnesia assessed as increase in spontaneous alteration at 5 mg/kg pretreated for 7 days followed by scopolamine challenge and measured after 30 mins by Y-maze test; assay type: functional, organism-based
Rattus norvegicus [25] = assay: as §1, with “reduction” for “increase”, “escape latency” for “number of platform crossing”, “5” for “10”, “daily for 5” for “after 6”; assay type: functional, organism-based
Rattus norvegicus [26] = assay: as §1, with “5” for “10”; assay type: functional, organism-based
Rattus norvegicus [27] = assay: as §1, with “time spent in” for “number of”, “zone” for “crossing”, “5” for “10”; assay type: functional, organism-based
Rattus norvegicus [28] = assay: (§2) Improvement in learning and spatial memory in icv infused amyloid beta (1 to 42)-induced Wistar rat model of Alzheimer's disease assessed as reduction in degeneration of neuron in hippocampal region at 5 mg/kg, po administered daily for 7 days starting from 7 days post surgery and measured after 6 days by H and E staining-based microscopic analysis; assay type: functional, organism-based
Rattus norvegicus [29] = assay: as §2, with “disordered” for “degeneration of”; assay type: functional, organism-based
[30] = molecular target: T3, Amyloid-beta precursor protein; assay: Displacement of [125I]IMPY from human amyloid beta(1-42) aggregates incubated for 3 hrs by gamma counting analysis

T1 sequence (O42275 whole entry): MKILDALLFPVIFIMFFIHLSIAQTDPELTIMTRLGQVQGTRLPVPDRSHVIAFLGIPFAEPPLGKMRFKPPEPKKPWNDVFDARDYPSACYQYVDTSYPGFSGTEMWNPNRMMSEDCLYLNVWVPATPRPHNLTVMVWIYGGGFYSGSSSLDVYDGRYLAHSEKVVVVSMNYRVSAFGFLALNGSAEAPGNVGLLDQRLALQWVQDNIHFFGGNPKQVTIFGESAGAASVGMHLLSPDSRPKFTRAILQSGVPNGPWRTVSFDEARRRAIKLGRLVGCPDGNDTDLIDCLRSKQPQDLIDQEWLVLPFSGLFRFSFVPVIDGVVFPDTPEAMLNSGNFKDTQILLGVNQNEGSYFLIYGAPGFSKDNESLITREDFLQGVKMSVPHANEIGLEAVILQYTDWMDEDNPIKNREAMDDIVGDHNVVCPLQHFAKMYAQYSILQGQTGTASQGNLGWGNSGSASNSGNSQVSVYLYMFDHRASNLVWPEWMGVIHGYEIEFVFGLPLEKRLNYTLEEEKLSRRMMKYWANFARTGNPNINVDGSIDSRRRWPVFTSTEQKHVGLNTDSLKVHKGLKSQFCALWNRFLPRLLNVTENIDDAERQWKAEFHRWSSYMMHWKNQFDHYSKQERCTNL
Chain of Acetylcholinesterase (Electrophorus electricus) (O42275 24-633 limits assumed): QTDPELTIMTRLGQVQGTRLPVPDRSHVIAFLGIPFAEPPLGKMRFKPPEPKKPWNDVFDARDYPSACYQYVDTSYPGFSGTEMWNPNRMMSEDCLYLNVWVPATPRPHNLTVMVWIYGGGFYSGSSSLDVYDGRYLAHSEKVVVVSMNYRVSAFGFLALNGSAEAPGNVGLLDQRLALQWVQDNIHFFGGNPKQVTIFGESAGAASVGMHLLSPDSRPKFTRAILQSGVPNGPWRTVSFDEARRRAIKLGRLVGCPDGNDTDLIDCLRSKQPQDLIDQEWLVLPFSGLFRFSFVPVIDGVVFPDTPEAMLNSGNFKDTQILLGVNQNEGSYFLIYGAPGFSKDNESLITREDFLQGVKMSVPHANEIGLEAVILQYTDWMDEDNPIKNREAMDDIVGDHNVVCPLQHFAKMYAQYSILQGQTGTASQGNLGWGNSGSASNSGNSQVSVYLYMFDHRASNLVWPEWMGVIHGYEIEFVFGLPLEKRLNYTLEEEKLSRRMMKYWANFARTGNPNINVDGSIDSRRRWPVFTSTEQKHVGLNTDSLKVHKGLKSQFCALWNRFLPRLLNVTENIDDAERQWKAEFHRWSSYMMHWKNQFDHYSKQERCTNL
T2 sequence (P81908 whole entry): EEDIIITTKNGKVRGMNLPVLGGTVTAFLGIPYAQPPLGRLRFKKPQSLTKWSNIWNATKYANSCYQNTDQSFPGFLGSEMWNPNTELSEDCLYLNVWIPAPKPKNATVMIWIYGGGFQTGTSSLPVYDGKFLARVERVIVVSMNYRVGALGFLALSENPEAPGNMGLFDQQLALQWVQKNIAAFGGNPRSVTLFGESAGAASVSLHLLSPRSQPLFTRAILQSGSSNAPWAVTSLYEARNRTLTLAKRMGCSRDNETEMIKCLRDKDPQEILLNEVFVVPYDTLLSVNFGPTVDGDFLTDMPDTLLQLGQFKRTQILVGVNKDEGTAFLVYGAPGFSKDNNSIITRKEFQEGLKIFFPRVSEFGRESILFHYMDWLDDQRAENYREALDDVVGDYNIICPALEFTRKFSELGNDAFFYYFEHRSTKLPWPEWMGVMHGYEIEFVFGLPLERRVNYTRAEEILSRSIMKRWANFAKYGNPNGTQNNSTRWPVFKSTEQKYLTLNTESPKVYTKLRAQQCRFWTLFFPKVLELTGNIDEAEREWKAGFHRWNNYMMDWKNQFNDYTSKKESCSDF
T3 sequence (P05067 whole entry): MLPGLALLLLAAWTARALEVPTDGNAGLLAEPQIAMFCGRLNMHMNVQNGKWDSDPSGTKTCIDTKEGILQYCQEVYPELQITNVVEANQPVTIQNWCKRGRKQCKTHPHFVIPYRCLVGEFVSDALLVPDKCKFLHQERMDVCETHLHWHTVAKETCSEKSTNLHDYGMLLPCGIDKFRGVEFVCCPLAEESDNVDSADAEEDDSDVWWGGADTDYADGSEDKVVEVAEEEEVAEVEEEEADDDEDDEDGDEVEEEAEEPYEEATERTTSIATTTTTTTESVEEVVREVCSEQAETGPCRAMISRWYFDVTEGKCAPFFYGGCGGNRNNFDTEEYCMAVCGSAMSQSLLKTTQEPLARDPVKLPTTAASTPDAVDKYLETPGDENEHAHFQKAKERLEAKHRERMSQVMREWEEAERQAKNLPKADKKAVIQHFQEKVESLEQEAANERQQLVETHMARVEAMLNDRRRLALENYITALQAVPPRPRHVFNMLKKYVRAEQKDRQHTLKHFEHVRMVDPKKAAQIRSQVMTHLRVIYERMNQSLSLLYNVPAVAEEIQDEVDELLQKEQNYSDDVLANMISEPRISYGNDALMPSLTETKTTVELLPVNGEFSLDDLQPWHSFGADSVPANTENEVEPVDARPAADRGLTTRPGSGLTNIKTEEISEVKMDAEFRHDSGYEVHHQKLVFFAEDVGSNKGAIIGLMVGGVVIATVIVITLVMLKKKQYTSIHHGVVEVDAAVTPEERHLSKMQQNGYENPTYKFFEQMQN
Chain of Cholinesterase (Equus caballus) (P81908 whole entry): as the sequence (P81908 whole entry) above

SMILES	IC50 (Acetylcholinesterase [2]) [nM]	IC50 (Cholinesterase [3]) [nM]	Ratio IC50 [4]	Papp at 18 h [5] [×10⁻⁶ cm/s]	further results
Nc1ccc2oc(N3CCN(C(=O)c4ccc(Br)cc4)CC3)nc2c1	52	1080	20.8	10.8	inhibition [1]: Active; inhibition [6]: Active; inhibition [7]: Active; inhibition [8]: Active; Ki (Acetylcholinesterase [9]): 30 nM; Ki (Cholinesterase [10]): 860 nM; inhibition [11]: Active; inhibition [12]: Active; Activity (SH-SY5Y [13]): inactive; Activity (SH-SY5Y [14]): Active; Activity [15]: Toxic; Activity [16]: Toxic; inhibition (Rattus norvegicus [17]): Dose-dependent effect; Activity (Rattus norvegicus [18]): Active; Activity (Rattus norvegicus [19]): Active; Activity (Rattus norvegicus [20]): Active; Activity (Rattus norvegicus [21]): Active; Activity (Rattus norvegicus [22]): Active; Activity (Rattus norvegicus [23]): Dose-dependent effect
C#CCN(Cc1ccc2cccc(O)c2n1)C(C#N)CCC1CCN(Cc2ccccc2)CC1 (configuration not stated)	29				
COc1cc2c(cc1OC)C(=O)C(CC1CCN(Cc3ccccc3)CC1)C2 (configuration not stated)					Activity (SH-SY5Y [13]): Active; Activity (Rattus norvegicus [24]): Active; Activity (Rattus norvegicus [25]): Active; Activity (Rattus norvegicus [26]): Active; Activity (Rattus norvegicus [27]): Active; Activity (Rattus norvegicus [28]): Active; Activity (Rattus norvegicus [29]): Active
Nc1ccc2oc(NC3CCN(Cc4ccccc4)CC3)nc2c1	559	2270	4	9.47	
Nc1ccc2oc(N3CCN(c4ccc(F)cc4)CC3)nc2c1	1440	6480	4.4	10.7	
Nc1ccc2oc(N3CCN(C(=O)c4ccc(F)cc4)CC3)nc2c1	73	817	11.1	9.67	
Nc1ccc2oc(N3CCN(C(=O)c4cccc(F)c4)CC3)nc2c1	231	5540	23.9	9.51	
CC(C)c1ccc(CN2CCN(c3nc4cc(N)ccc4o3)CC2)cc1	943	11300	11.9	11.6	
Nc1ccc2oc(N3CCN(C(=O)c4ccccc4)CC3)nc2c1	801	6050			
Nc1ccc2oc(N3CCN(C(=O)c4ccccc4Cl)CC3)nc2c1	559	4860	8.6	10.3	
Nc1ccc2oc(N3CCOCC3)nc2c1	7030	32300	4.5	7.44	
COc1cccc(C(=O)N2CCN(c3nc4cc(N)ccc4o3)CC2)c1	550	11700	21.3	9.54	
Cc1ccc(CN2CCN(c3nc4cc(N)ccc4o3)CC2)cc1	807	5190	6.4	10.6	
Nc1ccc2oc(N3CCN(Cc4ccc(Br)cc4)CC3)nc2c1	379	2970	7.8	11.3	
Nc1ccc2oc(N3CCN(c4ccccc4)CC3)nc2c1	2090	16800	8	10.3	
Nc1ccc2oc(N3CCN(C(=O)c4cccc(Cl)c4)CC3)nc2c1	241	4560	18.9	10.4	
Nc1ccc2oc(N3CCN(Cc4ccc(F)cc4)CC3)nc2c1	525	3110	5.9	10.5	
COc1ccc(CN2CCN(c3nc4cc(N)ccc4o3)CC2)cc1	748	6330	8.4	9.49	
Nc1ccc2oc(N3CCN(C(=O)c4ccc(Cl)cc4)CC3)nc2c1	109	3320	30.4	10.4	

SMILES	IC50 (Acetylcholinesterase [2]) [nM]	IC50 (Cholinesterase [3]) [nM]	Ratio IC50 [4]	Papp at 18 h [5] [×10⁻⁶ cm/s]	further results
Nc1ccc2oc(N3CCN(Cc4ccccc4)CC3)nc2c1	921	6760	7.3	10.2	
Nc1ccc2oc(N3CCN(C(=O)c4cccc(Br)c4)CC3)nc2c1	163	2680	16.4	10.5	
CN(C)c1ccc(-c2nc3cc([125I])ccc3o2)cn1					Ki [30]: 6.9 nM
Cc1ccc(N2CCN(c3nc4cc(N)ccc4o3)CC2)cc1	4180	9010	2.1	10.4	
COc1ccc(Cl)cc1C(=O)N1CCN(c2nc3cc(N)ccc3o2)CC1	321	1360	4.2	8.82	
Nc1ccc2oc(N3CCN(C(=O)c4ccc5c(c4)OCO5)CC3)nc2c1	616	1520	2.4	9.64	
Nc1ccc2oc(N3CCN(c4ccccn4)CC3)nc2c1	3310	15100	4.5	9.44	
Nc1ccc2oc(N3CCN(c4ccc(Br)cc4)CC3)nc2c1	1050	8760	8.3	10.5	
Nc1ccc2oc(N3CCN(Cc4ccc(Cl)cc4)CC3)nc2c1	747	3850	5.1	10.7	
COc1ccc(N2CCN(c3nc4cc(N)ccc4o3)CC2)cc1	2100	13000	6.1	10.5	
COc1ccc(C(=O)N2CCN(c3nc4cc(N)ccc4o3)CC2)cc1	275	7330	26.6	9.71	
Nc1ccc2oc(N3CCN(CCc4ccccc4)CC3)nc2c1	393	957	2.4	13.4	
Nc1ccc2oc(N3CCCCC3)nc2c1	5680	24200			
Nc1ccc2oc(N3CCN(C(=O)c4ccccc4Br)CC3)nc2c1	445	6190	13.9	10.6	
COc1ccccc1C(=O)N1CCN(c2nc3cc(N)ccc3o2)CC1	927	7380	7.9	9.21	
Nc1ccc2oc(N3CCN(C(=O)c4ccccc4F)CC3)nc2c1	337	8390	24.9	9.55	
Nc1ccc2oc(N3CCN(c4ccc(Cl)cc4)CC3)nc2c1	1960	11100	5.6	10.6	
COc1cc2c(cc1OC)C(=O)C(Cc1cc[n+](Cc3ccccc3)cc1Br)C2 (configuration not stated)	0.36				
